In PubChem BioAssay (NCI):
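Test compounds were applied to cells in 96-well plates for 48 hours at 5 doses. TGI: total growth inhibition.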

Legend:
Assay in all cases: NCI tumour cell line growth inhibition, 48 h
OVCAR-5 ovarian = system: OVCAR-5 ovarian
HOP-92 NSCLC = system: HOP-92 NSCLC
DLD-1 colon = system: DLD-1 colon
RXF 393 renal = system: RXF 393 renal
NCI-H522 lung = system: NCI-H522 lung
HOP-62 NSCLC = system: HOP-62 NSCLC
786-0 renal = system: 786-0 renal
XF 498 CNS = system: XF 498 CNS
A549 NSCLC = system: A549 NSCLC
KM20L2 colon = system: KM20L2 colon
MALME-3M melanoma = system: MALME-3M melanoma
OVCAR-4 ovarian = system: OVCAR-4 ovarian
LOX IMVI melanoma = system: LOX IMVI melanoma
IGROV1 ovarian = system: IGROV1 ovarian
UO-31 renal = system: UO-31 renal
SNB-19 CNS = system: SNB-19 CNS
SF-295 CNS = system: SF-295 CNS
ACHN renal = system: ACHN renal
HCT-15 colon = system: HCT-15 colon
KM12 colon = system: KM12 colon
A498 renal = system: A498 renal
COLO 205 colon = system: COLO 205 colon
SK-MEL-5 melanoma = system: SK-MEL-5 melanoma
HCC-2998 colon = system: HCC-2998 colon
SNB-75 CNS = system: SNB-75 CNS
SK-MEL-2 melanoma = system: SK-MEL-2 melanoma
SNB-78 CNS = system: SNB-78 CNS
M14 melanoma = system: M14 melanoma
NCI-H226 lung = system: NCI-H226 lung
CAKI-1 renal = system: CAKI-1 renal
HCT-116 colon = system: HCT-116 colon
SF-539 CNS = system: SF-539 CNS
HT29 colon = system: HT29 colon
UACC-257 melanoma = system: UACC-257 melanoma
K-562 leukemia = system: K-562 leukemia
SK-OV-3 ovarian = system: SK-OV-3 ovarian
HL-60(TB) leukemia = system: HL-60(TB) leukemia
U251 CNS = system: U251 CNS
OVCAR-3 ovarian = system: OVCAR-3 ovarian
HOP-18 NSCLC = system: HOP-18 NSCLC
DMS 273 small cell lung = system: DMS 273 small cell lung
NCI-H460 lung = system: NCI-H460 lung
NCI-H23 lung = system: NCI-H23 lung
EKVX NSCLC = system: EKVX NSCLC
OVCAR-8 ovarian = system: OVCAR-8 ovarian
SR leukemia = system: SR leukemia
SW-620 colon = system: SW-620 colon
SK-MEL-28 melanoma = system: SK-MEL-28 melanoma
LXFL 529 NSCLC = system: LXFL 529 NSCLC
SF-268 CNS = system: SF-268 CNS
SN12C renal = system: SN12C renal
UACC-62 melanoma = system: UACC-62 melanoma
TK-10 renal = system: TK-10 renal
CCRF-CEM leukemia = system: CCRF-CEM leukemia
M19-MEL melanoma = system: M19-MEL melanoma
RPMI-8226 leukemia = system: RPMI-8226 leukemia
MOLT-4 leukemia = system: MOLT-4 leukemia
MCF7 breast = system: MCF7 breast
MDA-N = system: MDA-N
DU-145 prostate = system: DU-145 prostate
MDA-MB-231 breast = system: MDA-MB-231 breast
PC-3 prostate = system: PC-3 prostate
T-47D breast = system: T-47D breast
MDA-MB-435 = system: MDA-MB-435
NCI/ADR-RES ovarian = system: NCI/ADR-RES ovarian
BT-549 breast = system: BT-549 breast
HS 578T breast = system: HS 578T breast

For CC1=CC2C(=O)N(c3ccccc3)C(=O)C2CC1n1[nH]c(=O)n(Cc2ccccc2)c1=O (stereo not drawn), the TGI (OVCAR-5 ovarian) was > 100 µM, the TGI (HOP-92 NSCLC) was > 100 µM and the TGI (DLD-1 colon) was > 100 µM. For the same compound, the TGI (RXF 393 renal) was > 100 µM, the TGI (NCI-H522 lung) was > 100 µM and the TGI (HOP-62 NSCLC) was > 100 µM. For the same compound, the TGI (786-0 renal) was > 100 µM, the TGI (XF 498 CNS) was > 100 µM and the TGI (A549 NSCLC) was > 100 µM. For the same compound, the TGI (KM20L2 colon) was > 100 µM, the TGI (MALME-3M melanoma) was > 100 µM and the TGI (OVCAR-4 ovarian) was > 100 µM. The TGI (LOX IMVI melanoma) was > 100 µM, the TGI (IGROV1 ovarian) was > 100 µM and the TGI (UO-31 renal) was > 100 µM. The TGI (SNB-19 CNS) was > 100 µM, the TGI (SF-295 CNS) was > 100 µM and the TGI (ACHN renal) was > 100 µM. For the same compound, the TGI (HCT-15 colon) was > 100 µM, the TGI (KM12 colon) was > 100 µM and the TGI (A498 renal) was > 100 µM. The TGI (COLO 205 colon) was > 100 µM, the TGI (SK-MEL-5 melanoma) was > 100 µM and the TGI (HCC-2998 colon) was > 100 µM. For the same compound, the TGI (SNB-75 CNS) was > 100 µM, the TGI (SK-MEL-2 melanoma) was > 100 µM and the TGI (SNB-78 CNS) was > 100 µM. The TGI (M14 melanoma) was > 100 µM, the TGI (NCI-H226 lung) was > 100 µM and the TGI (CAKI-1 renal) was > 100 µM. For the same compound, the TGI (HCT-116 colon) was > 100 µM, the TGI (SF-539 CNS) was > 100 µM and the TGI (HT29 colon) was > 100 µM. The TGI (UACC-257 melanoma) was > 100 µM, the TGI (K-562 leukemia) was > 100 µM and the TGI (SK-OV-3 ovarian) was > 100 µM. For the same compound, the TGI (HL-60(TB) leukemia) was > 100 µM, the TGI (U251 CNS) was > 100 µM and the TGI (OVCAR-3 ovarian) was > 100 µM. The TGI (HOP-18 NSCLC) was > 100 µM, the TGI (DMS 273 small cell lung) was > 100 µM and the TGI (NCI-H460 lung) was > 100 µM. For the same compound, the TGI (NCI-H23 lung) was > 100 µM, the TGI (EKVX NSCLC) was > 100 µM and the TGI (OVCAR-8 ovarian) was > 100 µM. For the same compound, the TGI (SR leukemia) was > 100 µM, the TGI (SW-620 colon) was > 100 µM and the TGI (SK-MEL-28 melanoma) was > 100 µM. For the same compound, the TGI (LXFL 529 NSCLC) was > 100 µM, the TGI (SF-268 CNS) was > 100 µM and the TGI (SN12C renal) was > 100 µM. For the same compound, the TGI (UACC-62 melanoma) was > 100 µM, the TGI (TK-10 renal) was > 100 µM and the TGI (CCRF-CEM leukemia) was > 100 µM.

In the case of COC1O[C@@H]2COC(C)(C)O[C@@H]2C(=O)N1Nc1ccc([N+](=O)[O-])cc1 (stereo partly drawn), the TGI (OVCAR-5 ovarian) is reported as > 100 µM, the TGI (HOP-92 NSCLC) is reported as > 100 µM and the TGI (DLD-1 colon) is reported as > 100 µM. The TGI (RXF 393 renal) was > 100 µM, the TGI (HOP-62 NSCLC) was > 100 µM and the TGI (786-0 renal) was > 100 µM. For the same compound, the TGI (XF 498 CNS) was > 100 µM, the TGI (A549 NSCLC) was > 100 µM and the TGI (KM20L2 colon) was > 100 µM. For the same compound, the TGI (MALME-3M melanoma) was > 100 µM, the TGI (OVCAR-4 ovarian) was > 100 µM and the TGI (LOX IMVI melanoma) was 95.5 µM. For the same compound, the TGI (IGROV1 ovarian) was > 100 µM, the TGI (UO-31 renal) was > 100 µM and the TGI (SNB-19 CNS) was > 100 µM. The TGI (SF-295 CNS) was > 100 µM, the TGI (ACHN renal) was > 100 µM and the TGI (HCT-15 colon) was > 100 µM. The TGI (KM12 colon) was > 100 µM, the TGI (A498 renal) was > 100 µM and the TGI (COLO 205 colon) was > 100 µM. The TGI (SK-MEL-5 melanoma) was > 100 µM, the TGI (HCC-2998 colon) was > 100 µM and the TGI (SNB-75 CNS) was > 100 µM. The TGI (SK-MEL-2 melanoma) was > 100 µM, the TGI (M14 melanoma) was > 100 µM and the TGI (NCI-H226 lung) was > 100 µM. The TGI (CAKI-1 renal) was > 100 µM, the TGI (HCT-116 colon) was > 100 µM and the TGI (SF-539 CNS) was > 100 µM. For the same compound, the TGI (HT29 colon) was > 100 µM, the TGI (UACC-257 melanoma) was > 100 µM and the TGI (M19-MEL melanoma) was > 100 µM. For the same compound, the TGI (K-562 leukemia) was > 100 µM, the TGI (RPMI-8226 leukemia) was 45.4 µM and the TGI (SK-OV-3 ovarian) was > 100 µM. For the same compound, the TGI (HL-60(TB) leukemia) was > 100 µM, the TGI (U251 CNS) was > 100 µM and the TGI (OVCAR-3 ovarian) was > 100 µM. The TGI (HOP-18 NSCLC) was > 100 µM, the TGI (DMS 273 small cell lung) was > 100 µM and the TGI (MOLT-4 leukemia) was > 100 µM. For the same compound, the TGI (NCI-H460 lung) was > 100 µM, the TGI (NCI-H23 lung) was > 100 µM and the TGI (EKVX NSCLC) was > 100 µM. For the same compound, the TGI (OVCAR-8 ovarian) was > 100 µM, the TGI (SW-620 colon) was 72.9 µM and the TGI (SK-MEL-28 melanoma) was > 100 µM. For the same compound, the TGI (LXFL 529 NSCLC) was > 100 µM, the TGI (SF-268 CNS) was > 100 µM and the TGI (SN12C renal) was > 100 µM. The TGI (UACC-62 melanoma) was > 100 µM and the TGI (TK-10 renal) was > 100 µM.

O=C1C(c2ccc([N+](=O)[O-])cc2)=C(Cl)C(=O)c2c(O)cccc21 was tested, and the TGI (OVCAR-5 ovarian) was > 100 µM, the TGI (MCF7 breast) was 37.7 µM and the TGI (HOP-92 NSCLC) was 33 µM. The TGI (DLD-1 colon) was 25.3 µM, the TGI (RXF 393 renal) was 29.1 µM and the TGI (NCI-H522 lung) was 21.6 µM. The TGI (HOP-62 NSCLC) was > 100 µM, the TGI (786-0 renal) was 28.9 µM and the TGI (XF 498 CNS) was 22.4 µM. For the same compound, the TGI (A549 NSCLC) was > 100 µM, the TGI (MALME-3M melanoma) was 34.8 µM and the TGI (MDA-N) was 34.5 µM. For the same compound, the TGI (OVCAR-4 ovarian) was 32.1 µM, the TGI (LOX IMVI melanoma) was 32.6 µM and the TGI (IGROV1 ovarian) was 42.4 µM. The TGI (UO-31 renal) was 19.1 µM, the TGI (SNB-19 CNS) was 49.6 µM and the TGI (DU-145 prostate) was 42.7 µM. The TGI (SF-295 CNS) was 98.9 µM, the TGI (ACHN renal) was 33 µM and the TGI (HCT-15 colon) was 54 µM. For the same compound, the TGI (KM12 colon) was > 62.6 µM, the TGI (A498 renal) was 59.3 µM and the TGI (COLO 205 colon) was 32.4 µM. For the same compound, the TGI (SK-MEL-5 melanoma) was > 54.8 µM, the TGI (HCC-2998 colon) was > 100 µM and the TGI (SNB-75 CNS) was 96.9 µM. It also gave a TGI (MDA-MB-231 breast) of 31.8 µM, a TGI (SK-MEL-2 melanoma) of 34.3 µM and a TGI (SNB-78 CNS) of 63.8 µM. For the same compound, the TGI (M14 melanoma) was 46.5 µM, the TGI (NCI-H226 lung) was > 59.3 µM and the TGI (CAKI-1 renal) was 50.2 µM. The TGI (HCT-116 colon) was > 56.6 µM, the TGI (PC-3 prostate) was 57.3 µM and the TGI (T-47D breast) was 52.6 µM. For the same compound, the TGI (SF-539 CNS) was 39.6 µM, the TGI (HT29 colon) was 43.5 µM and the TGI (MDA-MB-435) was 31.9 µM. The TGI (UACC-257 melanoma) was 32.9 µM, the TGI (M19-MEL melanoma) was 36 µM and the TGI (K-562 leukemia) was > 100 µM. For the same compound, the TGI (RPMI-8226 leukemia) was > 100 µM, the TGI (SK-OV-3 ovarian) was > 100 µM and the TGI (HL-60(TB) leukemia) was > 100 µM. For the same compound, the TGI (U251 CNS) was 32.6 µM, the TGI (OVCAR-3 ovarian) was 32.6 µM and the TGI (HOP-18 NSCLC) was 19.6 µM. For the same compound, the TGI (DMS 273 small cell lung) was > 100 µM, the TGI (MOLT-4 leukemia) was > 100 µM and the TGI (NCI-H460 lung) was > 100 µM. The TGI (NCI-H23 lung) was 36.6 µM, the TGI (EKVX NSCLC) was 46.6 µM and the TGI (OVCAR-8 ovarian) was > 86.4 µM. For the same compound, the TGI (NCI/ADR-RES ovarian) was 66.2 µM, the TGI (SR leukemia) was > 100 µM and the TGI (SW-620 colon) was 15.5 µM. It also gave a TGI (SK-MEL-28 melanoma) of 33.9 µM, a TGI (BT-549 breast) of 32.1 µM and a TGI (HS 578T breast) of 65.9 µM. The TGI (LXFL 529 NSCLC) was 23.2 µM, the TGI (SF-268 CNS) was 49.8 µM and the TGI (SN12C renal) was 39.9 µM. For the same compound, the TGI (UACC-62 melanoma) was 35.6 µM, the TGI (TK-10 renal) was 34.7 µM and the TGI (CCRF-CEM leukemia) was > 100 µM.
